Reference: patent publication US10508104B2, “6-hydroxy-5-(phenyl/heteroarylsulfonyl)pyrimidin-4(1H)-one as APJ agonists” (Bristol-Myers Squibb Company, priority 2016, dated 2019)

Target: human APJ receptor (Homo sapiens (Human), UniProt P35414)
Test: Intracellular cAMP accumulation assay (APJ hcAMP, HTRF)
Format: cell-based
Conditions: HEK293 cells stably expressing human APJ receptor; inhibition of forskolin-mediated cAMP production; read-out: Human APJ cAMP EC50 Potency range
In short: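 HEK293 cells stably expressing human APJ, 5,000 per well, incubated 30 min at rt with compound, […] and 2 μM forskolin. cAMP measured by HTRF against a cAMP standard curve as inhibition of forskolin-driven production. EC50 from variable-slope sigmoidal fit.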

human APJ receptor, sequence (P35414 whole entry): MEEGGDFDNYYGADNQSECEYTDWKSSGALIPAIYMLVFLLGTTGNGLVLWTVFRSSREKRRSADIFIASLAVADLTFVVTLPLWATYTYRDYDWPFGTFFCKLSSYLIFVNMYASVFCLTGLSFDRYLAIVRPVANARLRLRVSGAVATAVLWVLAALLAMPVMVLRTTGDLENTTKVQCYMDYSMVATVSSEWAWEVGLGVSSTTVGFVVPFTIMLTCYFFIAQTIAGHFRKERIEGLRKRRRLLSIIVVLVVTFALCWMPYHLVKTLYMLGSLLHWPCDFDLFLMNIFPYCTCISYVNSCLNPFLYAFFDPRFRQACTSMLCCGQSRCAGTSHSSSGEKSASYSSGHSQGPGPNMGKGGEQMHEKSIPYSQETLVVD

Row | SMILES | EC50 [nM]
1 | CC[C@@H](c1cc(F)cc(C#N)c1)n1c(CC2CC2)nc(=O)c(S(=O)(=O)c2ccc(-c3ccccc3C(N)=O)cc2)c1O [Example 502, 4′-({1-[(1S)-1-(3-cyano-5-fluorophenyl)propyl]-2-(cyclopropylmethyl)-6-hydroxy-4-oxo-1,4-dihydropyrimidin-5-yl}sulfonyl)-[1,1′-biphenyl]-2-carboxamide] | 0.01 to 10
2 | CCCCc1nc(=O)c(S(=O)(=O)c2ccc(-c3ccc(F)nc3F)cc2)c(O)n1[C@@H](CC)c1cccc(C#N)c1 [Example 503, 3-[(1S)-1-{2-butyl-5-[4-(2,6-difluoropyridin-3-yl)benzenesulfonyl]-6-hydroxy-4-oxo-1,4-dihydropyrimidin-1-yl}propyl]benzonitrile] | 0.01 to 10
3 | CCCCc1nc(=O)c(S(=O)(=O)c2ccc(-c3cccn(C)c3=O)cc2)c(O)n1[C@@H](CC)c1cccc(C#N)c1 [Example 504, 3-[(1S)-1-{2-butyl-6-hydroxy-5-[4-(1-methyl-2-oxo-1,2-dihydropyridin-3-yl)benzenesulfonyl]-4-oxo-1,4-dihydropyrimidin-1-yl}propyl]benzonitrile] | 0.01 to 10
4 | CCCCc1nc(=O)c(S(=O)(=O)c2ccc(-c3cccnc3F)cc2)c(O)n1[C@@H](CC)c1cccc(C#N)c1 [Example 505, 3-[(1S)-1-{2-butyl-5-[4-(2-fluoropyridin-3-yl)benzenesulfonyl]-6-hydroxy-4-oxo-1,4-dihydropyrimidin-1-yl}propyl]benzonitrile] | 0.01 to 10
5 | CCCCc1nc(=O)c(S(=O)(=O)c2ccc(-c3ccnc(F)c3F)cc2)c(O)n1[C@@H](CC)c1cccc(C#N)c1 [Example 506, 3-[(1S)-1-{2-butyl-5-[4-(2,3-difluoropyridin-4-yl)benzenesulfonyl]-6-hydroxy-4-oxo-1,4-dihydropyrimidin-1-yl}propyl]benzonitrile] | 0.01 to 10
6 | CCCCc1nc(=O)c(S(=O)(=O)c2ccc(-c3ccccc3C(=O)NC)cc2)c(O)n1[C@@H](CC)c1cccc(C#N)c1 [Example 507, 4′-({2-butyl-1-[(1S)-1-(3-cyanophenyl)propy1]-6-hydroxy-4-oxo-1,4-dihydropyrimidin-5-yl}sulfonyl)-N-methyl-[1,1′-biphenyl]-2-carboxamide] | 0.01 to 10
7 | CCCCc1nc(=O)c(S(=O)(=O)c2ccc(-c3cnc(OC)nc3OC)cc2)c(O)n1[C@@H](CC)c1cccc(C#N)c1 [Example 508, 3-[(1S)-1-{2-butyl-5-[4-(2,4-dimethoxypyrimidin-5-yl)benzenesulfonyl]-6-hydroxy-4-oxo-1,4-dihydropyrimidin-1-yl}propyl]benzonitrile] | 0.01 to 10
8 | CCCCc1nc(=O)c(S(=O)(=O)c2ccc(-c3cccnc3C(N)=O)cc2)c(O)n1[C@@H](CC)c1cccc(C#N)c1 [Example 509, 3-[4-({2-butyl-1-[(1S)-1-(3-cyanophenyl)propyl]-6-hydroxy-4-oxo-1,4-dihydropyrimidin-5-yl}sulfonyl)phenyl] pyridine-2-carboxamide] | 0.01 to 10
9 | CCCCc1nc(=O)c(S(=O)(=O)c2ccc(-c3ccnc4[nH]ccc34)cc2)c(O)n1[C@@H](CC)c1cccc(C#N)c1 [Example 510, 3-[(1S)-1-[2-buty1-6-hydroxy-4-oxo-5-(4-{1H-pyrrolo[2,3-b]pyridin-4-yl}benzenesulfonyl)-1,4-dihydropyrimidin-1-yl]propyl]benzonitrile] | 0.01 to 10
10 | CCCCc1nc(=O)c(S(=O)(=O)c2ccc(-c3ccccc3F)cc2)c(O)n1[C@@H](CC)c1cccc(C#N)c1 [Example 511, 3-[(1S)-1-[2-butyl-5-({2′-fluoro-[1,1′-biphenyl]-4-yl}sulfonyl)-6-hydroxy-4-oxo-1,4-dihydropyrimidin-1-yl]propyl]benzonitrile] | 0.01 to 10
11 | CCCCc1nc(=O)c(S(=O)(=O)c2ccc(-c3ccncc3F)cc2)c(O)n1[C@@H](CC)c1cccc(C#N)c1 [Example 512, 3-[(1S)-1-{2-butyl-5-[4-(3-fluoropyridin-4-yI)benzenesulfonyl]-6-hydroxy-4-oxo-1,4-dihydropyrimidin-1-yl}propyl]benzonitrile] | 0.01 to 10
12 | CCCCc1nc(=O)c(S(=O)(=O)c2ccc(-c3ccccc3C(=O)N(C)C)cc2)c(O)n1[C@@H](CC)c1cccc(C#N)c1 [Example 513, 4′-({2-butyl-1-[(1S)-1-(3-cyanophenyl)propyl]-6-hydroxy-4-oxo-1,4-dihydropyrimidin-5-yl}sulfonyl)-N,N-dimethyl-[1,1′-biphenyl]-2-carboxamide] | 0.01 to 10
13 | CCCCc1nc(=O)c(S(=O)(=O)c2ccc(-c3ccc(F)cc3C(N)=O)cc2)c(O)n1[C@@H](CC)c1ccc(C#N)c(F)c1 [Example 514, 4′-({2-butyl-1-[(1S)-1-(4-cyano-3-fluorophenyl)propyl]-6-hydroxy-4-oxo-1,4-dihydropyrimidin-5-yl}sulfonyl)-4-fluoro-[1,1′-biphenyl]-2-carboxamide] | 0.01 to 10
14 | CCCCc1nc(=O)c(S(=O)(=O)c2ccc(-c3cccnc3C)cc2)c(O)n1[C@@H](CC)c1ccc(C#N)c(F)c1 [Example 515, 4-[(1S)-1-{2-butyl-6-hydroxy-5-[4-(2-methylpyridin-3-yl)benzenesulfonyl]-4-oxo-1,4-dihydropyrimidin-1-yl}propyl]-2-fluorobenzonitrile] | 0.01 to 10
15 | CCCCc1nc(=O)c(S(=O)(=O)c2ccc(-c3ccncc3C)cc2)c(O)n1[C@@H](CC)c1ccc(C#N)c(F)c1 [Example 516, 4-[(1S)-1-{2-butyl-6-hydroxy-5-[4-(3-methylpyridin-4-yl)benzenesulfonyl]-4-oxo-1,4-dihydropyrimidin-1-yl}propyl]-2-fluorobenzonitrile] | 0.01 to 10
16 | CCCCc1nc(=O)c(S(=O)(=O)c2ccc(-c3ccnc(F)c3C)cc2)c(O)n1[C@@H](CC)c1ccc(C#N)c(F)c1 [Example 517, 4-[(1S)-1-{2-butyl-5-[4-(2-fluoro-3-methylpyridin-4-yl)benzenesulfonyl]-6-hydroxy-4-oxo-1,4-dihydropyrimidin-1-yl}propyl]-2-fluorobenzonitrile] | 0.01 to 10
17 | CCCCc1nc(=O)c(S(=O)(=O)c2ccc(-c3cccn(C)c3=O)cc2)c(O)n1[C@@H](CC)c1ccc(C#N)c(F)c1 [Example 518, 4-[(1S)-1-{2-butyl-6-hydroxy-5-[4-(1-methyl-2-oxo-1,2-dihydropyridin-3-yl)benzenesulfonyl]-4-oxo-1,4-dihydropyrimidin-1-yl}propyl]-2-fluorobenzonitrile] | 0.01 to 10
18 | CCCCc1nc(=O)c(S(=O)(=O)c2ccc(-c3ccc(F)nc3C)cc2)c(O)n1[C@@H](CC)c1ccc(C#N)c(F)c1 [Example 519, 4-[(1S)-1-{2-butyl-5-[4-(6-fluoro-2-methylpyridin-3-yl)benzenesulfonyl]-6-hydroxy-4-oxo-1,4-dihydropyrimidin-1-yl}propyl]-2-fluorobenzonitrile] | 0.01 to 10
19 | CCCCc1nc(=O)c(S(=O)(=O)c2ccc(-c3ccccc3C(=O)NC)cc2)c(O)n1[C@@H](CC)c1ccc(C#N)c(F)c1 [Example 520, 4′-({2-butyl-1-[(1S)-1-(4-cyano-3-fluorophenyl)propyl]-6-hydroxy-4-oxo-1,4-dihydropyrimidin-5-yl}sulfonyl)-N-methyl-[1,1′-biphenyl]-2-carboxamide] | 0.01 to 10
20 | CCCCc1nc(=O)c(S(=O)(=O)c2ccc(-c3ccccc3C(=O)N(C)C)cc2)c(O)n1[C@@H](CC)c1ccc(C#N)c(F)c1 [Example 521, 4′-({2-butyl-1-[(1S)-1-(4-cyano-3-fluorophenyl)propyl]-6-hydroxy-4-oxo-1,4-dihydropyrimidin-5-yl}sulfonyl)-N,N-dimethyl-[1,1′-biphenyl]-2-carboxamide] | 0.01 to 10
21 | CCCCc1nc(=O)c(S(=O)(=O)c2ccc(-c3ccccc3C(=O)NC3CC3)cc2)c(O)n1[C@@H](CC)c1cccc(C#N)c1 [Example 522, 4′-({2-butyl-1-[(1S)-1-(3-cyanophenyl)propyl]-6-hydroxy-4-oxo-1,4-dihydropyrimidin-5-yl}sulfonyl)-N-cyclopropyl-[1,1′-biphenyl]-2-carboxamide] | 0.01 to 10
22 | CCCCc1nc(=O)c(S(=O)(=O)c2ccc(-c3cccc(C(=O)NC)c3)cc2)c(O)n1[C@@H](CC)c1cccc(C#N)c1 [Example 523, 4′-({2-butyl-1-[(1S)-1-(3-cyanophenyl)propyl]-6-hydroxy-4-oxo-1,4-dihydropyrimidin-5-yl}sulfonyl)-N-methyl-[1,1′-biphenyl]-3-carboxamide] | 0.01 to 10
23 | CCCCc1nc(=O)c(S(=O)(=O)c2ccc(-c3cccc4c3C(=O)NC4)cc2)c(O)n1[C@H](c1cccc(C#N)c1)C1CC1 [Example 524, 3-[(S)-{2-butyl-6-hydroxy-4-oxo-5-[4-(3-oxo-2,3-dihydro-1H-isoindol-4-yl)benzenesulfonyl]-1,4-dihydropyrimidin-1-yl}(cyclopropyl)methyl] benzonitrile] | 0.01 to 10
24 | CCCCc1nc(=O)c(S(=O)(=O)c2ccc(-c3ccc(C(N)=O)cc3F)cc2)c(O)n1[C@@H](CC)c1cccc(C#N)c1 [Example 525, 4′-({2-butyl-1-[(1S)-1-(3-cyanophenyl)propyl]-6-hydroxy-4-oxo-1,4-dihydropyrimidin-5-yl}sulfonyl)-2-fluoro-[1,1′-biphenyl]-4-carboxamide] | 0.01 to 10
25 | CCCCc1nc(=O)c(S(=O)(=O)c2ccc(-c3ccnc(F)c3C)cc2)c(O)n1[C@@H](CC)c1ccnc(C#N)c1 [Example 526, 4-[(1S)-1-{2-butyl-5-[4-(2-fluoro-3-methylpyridin-4-yl)benzenesulfonyl]-6-hydroxy-4-oxo-1,4-dihydropyrimidin-1-yl}propyl]pyridine-2-carbonitrile] | 0.01 to 10
26 | CCCCc1nc(=O)c(S(=O)(=O)c2ccc(-c3ccncc3C)cc2)c(O)n1[C@@H](CC)C1CCOCC1 [Example 527, 2-butyl-6-hydroxy-5-[4-(3-methylpyridin-4-yl)benzenesulfonyl]-1-[(1S)-1-(oxan-4-yl)propyl]-1,4-dihydropyrimidin-4-one] | 0.01 to 10
27 | CCCCc1nc(=O)c(S(=O)(=O)c2ccc(-c3ccnc(F)c3C)cc2)c(O)n1[C@@H](CC)C1CCOCC1 [Example 528, 2-butyl-5-[4-(2-fluoro-3-methylpyridin-4-yl)benzenesulfonyl]-6-hydroxy-1-[(1S)-1-(oxan-4-yl)propyl]-1,4-dihydropyrimidin-4-one] | 0.01 to 10
